From BindingDB's records for doi:10.1016/S0960-894X(01)00040-3 (Glaxosmithkline, 2001)

Molecular target: Tyrosine--tRNA ligase (Staphylococcus aureus)
Test: Inhibitory activity against Staphylococcus aureus tyrosyl tRNA synthetase (YRS) using aminoacylation assay

Row | Structure (SMILES) | IC50 [nM]
1 | CCCCOC(=O)C(NC(=O)[C@@H](N)Cc1ccc(O)cc1)[C@H]1C[C@@H](O)[C@@H](O)[C@@H](C)O1 (stereo partly drawn) [[2-Amino-3-((S)-4-hydroxy-phenyl)-propionylamino]-((2R,4R,5R,6R)-4,5-dihydroxy-6-methyl-tetrahydro-pyran-2-yl)-acetic acid butyl ester] | 3.6
2 | N[C@@H](Cc1ccc(O)cc1)C(=O)NC(C(=O)O)[C@@H]1O[C@H](CO)[C@H](O)[C@H](O)[C@H]1O (stereo partly drawn) [[2-Amino-3-((S)-4-hydroxy-phenyl)-propionylamino]-((2S,3R,4R,5R,6R)-3,4,5-trihydroxy-6-hydroxymethyl-tetrahydro-pyran-2-yl)-acetic acid] | 190
3 | CCCCOC(=O)[C@@H](NC(=O)[C@@H](N)Cc1ccc(O)cc1)[C@@H]1O[C@H](C)[C@H](O)[C@H](O)[C@H]1O [[2-Amino-3-((S)-4-hydroxy-phenyl)-propionylamino]-((2S,3R,4S,5R,6R)-3,4,5-trihydroxy-6-methyl-tetrahydro-pyran-2-yl)-acetic acid (S)-butyl ester] | 0.8
